Assay results reported in PubChem BioAssay (NCI).
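Here, GI50 denotes the concentration required for 50% inhibition of growth. TGI marks complete inhibition of growth.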

Columns and labels:
Experiment in all cases: NCI-60 cell line screen, 384-well format
A549 NSCLC = tested on: A549 NSCLC
SK-MEL-28 melanoma = tested on: SK-MEL-28 melanoma
HCT-116 colon = tested on: HCT-116 colon
OVCAR-5 ovarian = tested on: OVCAR-5 ovarian
MCF7 breast = tested on: MCF7 breast
SNB-19 CNS = tested on: SNB-19 CNS
NCI-H460 NSCLC = tested on: NCI-H460 NSCLC
COLO 205 colon = tested on: COLO 205 colon
K-562 leukemia = tested on: K-562 leukemia
DU-145 prostate = tested on: DU-145 prostate
U251 glioblastoma = tested on: U251 glioblastoma
SK-MEL-5 melanoma = tested on: SK-MEL-5 melanoma
HOP-62 NSCLC = tested on: HOP-62 NSCLC
NCI-H226 lung = tested on: NCI-H226 lung
SK-OV-3 ovarian = tested on: SK-OV-3 ovarian
OVCAR-8 ovarian = tested on: OVCAR-8 ovarian
SF-268 CNS = tested on: SF-268 CNS
RXF 393 renal = tested on: RXF 393 renal
BT-549 breast = tested on: BT-549 breast
SR leukemia = tested on: SR leukemia
M14 melanoma = tested on: M14 melanoma
786-0 renal = tested on: 786-0 renal
NCI-H522 lung = tested on: NCI-H522 lung
HT29 colon = tested on: HT29 colon
MDA-MB-468 breast = tested on: MDA-MB-468 breast
SF-295 CNS = tested on: SF-295 CNS
OVCAR-3 ovarian = tested on: OVCAR-3 ovarian
HL-60(TB) leukemia = tested on: HL-60(TB) leukemia
HCT-15 colon = tested on: HCT-15 colon
SNB-75 CNS = tested on: SNB-75 CNS
MDA-MB-435 melanoma = tested on: MDA-MB-435 melanoma
ACHN renal = tested on: ACHN renal
IGROV1 ovarian = tested on: IGROV1 ovarian
SN12C renal = tested on: SN12C renal
UACC-257 melanoma = tested on: UACC-257 melanoma
A498 renal = tested on: A498 renal
CAKI-1 renal = tested on: CAKI-1 renal
EKVX NSCLC = tested on: EKVX NSCLC
NCI-H23 lung = tested on: NCI-H23 lung
OVCAR-4 ovarian = tested on: OVCAR-4 ovarian
MOLT-4 leukemia = tested on: MOLT-4 leukemia
NCI-H322M lung = tested on: NCI-H322M lung
SK-MEL-2 melanoma = tested on: SK-MEL-2 melanoma
KM12 colon = tested on: KM12 colon
MALME-3M melanoma = tested on: MALME-3M melanoma
HOP-92 NSCLC = tested on: HOP-92 NSCLC
TK-10 renal = tested on: TK-10 renal
T-47D breast = tested on: T-47D breast
PC-3 prostate = tested on: PC-3 prostate
HS 578T breast = tested on: HS 578T breast
SF-539 CNS = tested on: SF-539 CNS
MDA-MB-231 breast = tested on: MDA-MB-231 breast
UO-31 renal = tested on: UO-31 renal
UACC-62 melanoma = tested on: UACC-62 melanoma
SW-620 colon = tested on: SW-620 colon

CN[C@@H](C)C(=O)N[C@H](C(=O)N1CCC[C@H]1C(=O)Nc1sc(-c2ncco2)nc1-c1ccccc1)C1CCCCC1
GI50 (A549 NSCLC): 11.6 µM
TGI (A549 NSCLC): > 100 µM
GI50 (SK-MEL-28 melanoma): 2.64 µM
TGI (SK-MEL-28 melanoma): 16.7 µM
GI50 (HCT-116 colon): 0.43 µM
TGI (HCT-116 colon): 14.3 µM
GI50 (OVCAR-5 ovarian): 10.7 µM
TGI (OVCAR-5 ovarian): 34.2 µM
GI50 (MCF7 breast): 0.16 µM
TGI (MCF7 breast): 1.18 µM
GI50 (SNB-19 CNS): 18.6 µM
TGI (SNB-19 CNS): 61.4 µM
GI50 (NCI-H460 NSCLC): 7.4 µM
TGI (NCI-H460 NSCLC): 21.3 µM
GI50 (COLO 205 colon): 2.05 µM
TGI (COLO 205 colon): 16 µM
GI50 (K-562 leukemia): 2.18 µM
TGI (K-562 leukemia): 16.6 µM
GI50 (DU-145 prostate): 1.03 µM
TGI (DU-145 prostate): 10.5 µM
GI50 (U251 glioblastoma): 5.48 µM
TGI (U251 glioblastoma): 19.3 µM
GI50 (SK-MEL-5 melanoma): 0.114 µM
TGI (SK-MEL-5 melanoma): 1.38 µM
GI50 (HOP-62 NSCLC): 1.08 µM
TGI (HOP-62 NSCLC): 2.68 µM
GI50 (NCI-H226 lung): 5.52 µM
TGI (NCI-H226 lung): 27.5 µM
GI50 (SK-OV-3 ovarian): < 0.01 µM
TGI (SK-OV-3 ovarian): 0.064 µM
GI50 (OVCAR-8 ovarian): 1.02 µM
TGI (OVCAR-8 ovarian): 2.87 µM
GI50 (SF-268 CNS): 10.4 µM
TGI (SF-268 CNS): 22.3 µM
GI50 (RXF 393 renal): < 0.01 µM
TGI (RXF 393 renal): 0.0402 µM
GI50 (BT-549 breast): 0.234 µM
TGI (BT-549 breast): 2.32 µM
GI50 (SR leukemia): 0.182 µM
TGI (SR leukemia): 0.592 µM
GI50 (M14 melanoma): 8.12 µM
TGI (M14 melanoma): 20.8 µM
GI50 ([…]-0 renal): 6.69 µM
TGI (786-0 renal): 19.9 µM
GI50 (NCI-H522 lung): 0.0966 µM
TGI (NCI-H522 lung): 1.08 µM
GI50 (HT29 colon): 5.63 µM
TGI (HT29 colon): 18.1 µM
GI50 (MDA-MB-468 breast): 0.476 µM
TGI (MDA-MB-468 breast): 5.23 µM
GI50 (SF-295 CNS): 3.72 µM
TGI (SF-295 CNS): 14.7 µM
GI50 (OVCAR-3 ovarian): 1.36 µM
TGI (OVCAR-3 ovarian): 15.5 µM
GI50 (HL-60(TB) leukemia): 0.0148 µM
TGI (HL-60(TB) leukemia): 0.584 µM
GI50 (HCT-15 colon): 8.22 µM
TGI (HCT-15 colon): 21.4 µM
GI50 (SNB-75 CNS): 2.52 µM
TGI (SNB-75 CNS): 11.1 µM
GI50 (MDA-MB-435 melanoma): 1.6 µM
TGI (MDA-MB-435 melanoma): 13.5 µM
GI50 (ACHN renal): 4.35 µM
TGI (ACHN renal): 17.2 µM
GI50 (IGROV1 ovarian): 10.5 µM
TGI (IGROV1 ovarian): 24.5 µM
GI50 (SN12C renal): 11 µM
TGI (SN12C renal): 23.6 µM
GI50 (UACC-257 melanoma): 2.27 µM
TGI (UACC-257 melanoma): 13.3 µM
GI50 (A498 renal): 5.13 µM
TGI (A498 renal): 17.9 µM
GI50 (CAKI-1 renal): 11.2 µM
TGI (CAKI-1 renal): 23.3 µM
GI50 (EKVX NSCLC): 10.7 µM
TGI (EKVX NSCLC): 32.2 µM
GI50 (NCI-H23 lung): 0.159 µM
TGI (NCI-H23 lung): 1.28 µM
GI50 (OVCAR-4 ovarian): < 0.01 µM
GI50 (MOLT-4 leukemia): 4.34 µM
TGI (MOLT-4 leukemia): 14.9 µM
GI50 (NCI-H322M lung): 13.5 µM
TGI (NCI-H322M lung): 39.6 µM
GI50 (SK-MEL-2 melanoma): < 0.01 µM
TGI (SK-MEL-2 melanoma): 1.04 µM
GI50 (KM12 colon): 1.21 µM
TGI (KM12 colon): 10.5 µM
GI50 (MALME-3M melanoma): 0.0256 µM
TGI (MALME-3M melanoma): 0.74 µM
GI50 (HOP-92 NSCLC): 9.99 µM
TGI (HOP-92 NSCLC): 21.8 µM
GI50 (TK-10 renal): 11.3 µM
TGI (TK-10 renal): 24.4 µM
GI50 (T-47D breast): 16.7 µM
TGI (T-47D breast): 30.5 µM
GI50 (PC-3 prostate): 6.22 µM
TGI (PC-3 prostate): 19.8 µM
GI50 (HS 578T breast): 0.609 µM
TGI (HS 578T breast): 15.4 µM
GI50 (SF-539 CNS): 3.44 µM
TGI (SF-539 CNS): 17.3 µM
GI50 (MDA-MB-231 breast): 0.14 µM
TGI (MDA-MB-231 breast): 0.909 µM
GI50 (UO-31 renal): 15.9 µM
TGI (UO-31 renal): 29.6 µM
GI50 (UACC-62 melanoma): 0.781 µM
TGI (UACC-62 melanoma): 10.9 µM
GI50 (SW-620 colon): 3.66 µM
TGI (SW-620 colon): 17.9 µM
